Assays:
rM4 receptors = biological target: T1, rM4 receptors (Rattus norvegicus, UniProt P08485); assay: Rat M4 PAM pERK assay; assay type: cell-based; settings: CHO cells expressing rM4; EC20 of acetylcholine (10 nM final); TR-FRET
T1 construct: expressed in transfected cells; host or cells: CHO cells
T1 sequence (P08485 1-478): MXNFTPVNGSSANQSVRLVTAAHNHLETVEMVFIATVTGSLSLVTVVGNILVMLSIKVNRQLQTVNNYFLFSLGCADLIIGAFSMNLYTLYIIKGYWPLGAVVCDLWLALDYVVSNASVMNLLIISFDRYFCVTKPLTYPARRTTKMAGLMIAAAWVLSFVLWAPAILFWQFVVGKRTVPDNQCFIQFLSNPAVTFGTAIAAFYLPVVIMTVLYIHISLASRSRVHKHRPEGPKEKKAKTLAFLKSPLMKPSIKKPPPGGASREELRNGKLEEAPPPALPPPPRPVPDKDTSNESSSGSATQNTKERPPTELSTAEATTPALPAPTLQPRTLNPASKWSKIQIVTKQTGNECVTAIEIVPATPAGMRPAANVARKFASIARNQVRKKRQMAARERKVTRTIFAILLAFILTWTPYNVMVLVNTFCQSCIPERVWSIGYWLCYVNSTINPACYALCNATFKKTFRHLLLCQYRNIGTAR

human M4 receptor = biological target: T2, human M4 receptor (Homo sapiens, UniProt P08173); assay: M4 GTPγS PAM assay; assay type: biochemical; settings: membranes of CHO-K1 cells stably expressing human M4; EC20 acetylcholine 40 nM; 35S-GTP
T2 construct: expressed in transfected cells
T2 sequence (P08173 1-479): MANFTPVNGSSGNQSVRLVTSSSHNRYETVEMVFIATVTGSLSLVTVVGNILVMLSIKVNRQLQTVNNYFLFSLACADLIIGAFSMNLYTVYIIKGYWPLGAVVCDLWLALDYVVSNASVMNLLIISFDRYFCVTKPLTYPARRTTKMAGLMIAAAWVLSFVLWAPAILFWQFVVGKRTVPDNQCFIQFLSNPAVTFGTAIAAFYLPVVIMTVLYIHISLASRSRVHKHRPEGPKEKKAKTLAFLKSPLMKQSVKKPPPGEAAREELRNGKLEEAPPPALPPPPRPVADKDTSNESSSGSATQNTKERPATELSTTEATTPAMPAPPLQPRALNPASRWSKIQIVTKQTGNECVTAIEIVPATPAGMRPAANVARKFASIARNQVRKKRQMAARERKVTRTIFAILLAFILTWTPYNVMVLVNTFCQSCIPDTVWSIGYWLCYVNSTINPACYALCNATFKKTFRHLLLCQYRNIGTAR
Procedure, shortened: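 CHO-K1 membranes stably expressing human M4, preincubated with compound and 0.1 μM GDP (final) in 20 mM HEPES, 10 mM MgCl2, 100 mM NaCl, pH 7.4, then EC20 acetylcholine (40 nM final). 35S-GTPγS binding 1 h at room temperature, filtration and scintillation counting.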

hM4 receptors = biological target: T3, hM4 receptors (Homo sapiens, UniProt P08173); assay: Human M4 PAM pERK assay; assay type: cell-based; settings: CHO cells expressing hM4; EC20 of acetylcholine (10 nM final); TR-FRET
T3 construct: expressed in transfected cells; host or cells: CHO cells
T3 sequence (P08173 1-479): T2 sequence (P08173 1-479)

EC50 (rM4 receptors)	EC50 (human M4 receptor)	EC50 (hM4 receptors)	SMILES
500 to 2000 nM	≥ 2000 nM	500 to 2000 nM	COc1nc(C#N)nc2c1C(C)N(C(=O)CC1CN(c3ccnc(C(F)(F)F)c3)C1C)C2 (single isomer, unassigned) [Compound I-39, 4-Methoxy-5-methyl-6-(2-(2-methyl-1-(2-(trifluoromethyl)pyridin-4-yl)azetidin-3-yl)acetyl)-6,7-dihydro-5H-pyrrolo[3,4-d]pyrimidine-2-carbonitrile]
≥ 2000 nM	≥ 2000 nM	≥ 2000 nM	COc1nc(C)nc2c1C(C)N(C(=O)CC1CN(c3ccnc(C(F)(F)F)c3)C1)C2 (single isomer, unassigned) [Compound I-53, 1-(4-Methoxy-2,5-dimethyl-5,7-dihydro-6H-pyrrolo[3,4-d]pyrimidin-6-yl)-2-(1-(2-(trifluoromethyl)pyridin-4-yl)azetidin-3-yl)ethan-1-one]
≥ 2000 nM	≥ 2000 nM	≥ 2000 nM	COc1nc(C)nc2c1C(C)N(C(=O)CC1CN(c3cccc(C#N)c3)C1)C2 (single isomer, unassigned) [Compound I-54, 3-(3-(2-(4-Methoxy-2,5-dimethyl-5,7-dihydro-6H-pyrrolo[3,4-d]pyrimidin-6-yl)-2-oxoethyl)azetidin-1-yl)benzonitrile]
500 to 2000 nM	≥ 2000 nM	500 to 2000 nM	COc1nc(C)nc2c1C(C)N(C(=O)CC1CN(c3cccc(C#N)c3)C1)C2 (single isomer, unassigned) [Compound I-55, 3-(3-(2-(4-Methoxy-2,5-dimethyl-5,7-dihydro-6H-pyrrolo[3,4-d]pyrimidin-6-yl)-2-oxoethyl)azetidin-1-yl)benzonitrile]
100 to 500 nM	100 to 500 nM	≤ 100 nM	COc1nc(C)nc2c1C(C)N(C(=O)CC1CN(c3ccc(C#N)cc3)C1)C2 (single isomer, unassigned) [Compound I-56, 4-(3-(2-(4-Methoxy-2,5-dimethyl-5,7-dihydro-6H-pyrrolo[3,4-d]pyrimidin-6-yl)-2-oxoethyl)azetidin-1-yl)benzonitrile]
≥ 2000 nM	500 to 2000 nM	≥ 2000 nM	COc1nc(C)nc2c1C(C)N(C(=O)CC1CN(c3ccc(C#N)cc3)C1)C2 (single isomer, unassigned) [Compound I-57, 4-(3-(2-(4-Methoxy-2,5-dimethyl-5,7-dihydro-6H-pyrrolo[3,4-d]pyrimidin-6-yl)-2-oxoethyl)azetidin-1-yl)benzonitrile]
≥ 2000 nM	≥ 2000 nM	≥ 2000 nM	COc1nc(C)nc2c1C(C)N(C(=O)CC1CN(c3cncnc3)C1)C2 (single isomer, unassigned) [Compound I-60, 1-(4-Methoxy-2,5-dimethyl-5,7-dihydro-6H-pyrrolo[3,4-d]pyrimidin-6-yl)-2-(1-(pyrimidin-5-yl)azetidin-3-yl)ethan-1-one]
500 to 2000 nM	100 to 500 nM	100 to 500 nM	COc1nc(C)nc2c1CN(C(=O)CC1CN(c3ccnc(C(F)(F)F)c3)C1)C2C (single isomer, unassigned) [Compound I-62, 1-(4-Methoxy-2,7-dimethyl-5,7-dihydro-6H-pyrrolo[3,4-d]pyrimidin-6-yl)-2-(1-(2-(trifluoromethyl)pyridin-4-yl)azetidin-3-yl)ethan-1-one]
≥ 2000 nM	500 to 2000 nM	500 to 2000 nM	COc1nc(C)nc2c1CN(C(=O)CC1CN(c3ccnc(C(F)(F)F)c3)C1)C2C (single isomer, unassigned) [Compound I-63, 1-(4-Methoxy-2,7-dimethyl-5,7-dihydro-6H-pyrrolo[3,4-d]pyrimidin-6-yl)-2-(1-(2-(trifluoromethyl)pyridin-4-yl)azetidin-3-yl)ethan-1-one]
≥ 2000 nM	≥ 2000 nM	≥ 2000 nM	COc1nc2c(c(OC)n1)C(C)N(C(=O)CC1CN(c3ccc(C#N)cc3)C1)C2 (single isomer, unassigned) [Compound I-65, 4-(3-(2-(2,4-dimethoxy-5-methyl-5,7-dihydro-6H-pyrrolo[3,4-d]pyrimidin-6-yl)-2-oxoethyl)azetidin-1-yl)benzonitrile]
100 to 500 nM	500 to 2000 nM	≤ 100 nM	COc1nc2c(c(OC)n1)C(C)N(C(=O)CC1CN(c3ccc(C#N)cc3)C1)C2 (single isomer, unassigned) [Compound I-66, 4-(3-(2-(2,4-dimethoxy-5-methyl-5,7-dihydro-6H-pyrrolo[3,4-d]pyrimidin-6-yl)-2-oxoethyl)azetidin-1-yl)benzonitrile]
100 to 500 nM	≤ 100 nM	100 to 500 nM	COc1nc2c(c(OC)n1)C(C)N(C(=O)CC1CN(c3ccnc(C(F)(F)F)c3)C1)C2 (single isomer, unassigned) [Compound I-68, 1-(2,4-Dimethoxy-5-methyl-5,7-dihydro-6H-pyrrolo[3,4-d]pyrimidin-6-yl)-2-(1-(2-(trifluoromethyl)pyridin-4-yl)azetidin-3-yl)ethan-1-one]
≥ 2000 nM	≥ 2000 nM	≥ 2000 nM	COc1nc2c(c(OC)n1)C(C)N(C(=O)CC1CN(c3ccnc(C(F)(F)F)c3)C1)C2 (single isomer, unassigned) [Compound I-69, 1-(2,4-Dimethoxy-5-methyl-5,7-dihydro-6H-pyrrolo[3,4-d]pyrimidin-6-yl)-2-(1-(2-(trifluoromethyl)pyridin-4-yl)azetidin-3-yl)ethan-1-one]
≥ 2000 nM	≤ 100 nM	500 to 2000 nM	COc1nc(OC)c2c(n1)C(C)N(C(=O)CC1CN(c3ccnc(C(F)(F)F)c3)C1)C2 (single isomer, unassigned) [Compound I-70, 1-(2,4-Dimethoxy-7-methyl-5,7-dihydro-6H-pyrrolo[3,4-d]pyrimidin-6-yl)-2-(1-(2-(trifluoromethyl)pyridin-4-yl)azetidin-3-yl)ethan-1-one]
≥ 2000 nM	500 to 2000 nM	500 to 2000 nM	COc1nc(OC)c2c(n1)C(C)N(C(=O)CC1CN(c3ccnc(C(F)(F)F)c3)C1)C2 (single isomer, unassigned) [Compound I-71, 1-(2,4-Dimethoxy-7-methyl-5,7-dihydro-6H-pyrrolo[3,4-d]pyrimidin-6-yl)-2-(1-(2-(trifluoromethyl)pyridin-4-yl)azetidin-3-yl)ethan-1-one]
500 to 2000 nM	≤ 100 nM	100 to 500 nM	COc1nc(Cl)nc2c1CN(C(=O)CC1CN(c3ccnc(C(F)(F)F)c3)C1)C2 [Compound I-1, 1-(2-Chloro-4-methoxy-5,7-dihydro-6H-pyrrolo[3,4-d]pyrimidin-6-yl)-2-(1-(2-(trifluoromethyl)pyridin-4-yl)azetidin-3-yl)ethan-1-one]
500 to 2000 nM	≤ 100 nM	≤ 100 nM	COc1nc(C#N)nc2c1CN(C(=O)CC1CN(c3ccnc(C(F)(F)F)c3)C1)C2 [Compound I-2, 4-Methoxy-6-(2-(1-(2-(trifluoromethyl)pyridin-4-yl)azetidin-3-yl)acetyl)-6,7-dihydro-5H-pyrrolo[3,4-d]pyrimidine-2-carbonitrile]
≥ 2000 nM	≥ 2000 nM	100 to 500 nM	COc1cc(N2CC(CC(=O)N3Cc4nc(C#N)nc(OC)c4C3C)C2)cc(C(F)(F)F)n1 (stereo not drawn) [Compound I-31, 4-Methoxy-6-(2-(1-(2-methoxy-6-(trifluoromethyl)pyridin-4-yl)azetidin-3-yl)acetyl)-5-methyl-6,7-dihydro-5H-pyrrolo[3,4-d]pyrimidine-2-carbonitrile]
500 to 2000 nM	100 to 500 nM	100 to 500 nM	COc1nc(C)nc2c1CN(C(=O)CC1CN(c3ccnc(C(F)(F)F)c3)C1)C2 [Compound I-43, 1-(4-Methoxy-2-methyl-5,7-dihydro-6H-pyrrolo[3,4-d]pyrimidin-6-yl)-2-(1-(2-(trifluoromethyl)pyridin-4-yl)azetidin-3-yl)ethan-1-one]
500 to 2000 nM	≥ 2000 nM	≥ 2000 nM	COc1nc(C)nc2c1CN(C(=O)CC1CN(c3ccc(C(F)(F)F)nc3)C1)C2 [Compound I-44, 1-(4-Methoxy-2-methyl-5,7-dihydro-6H-pyrrolo[3,4-d]pyrimidin-6-yl)-2-(1-(6-(trifluoromethyl)pyridin-3-yl)azetidin-3-yl)ethan-1-one]
